Measured values reported in patent US11638427B2, “Methods and compositions for altering secondary metabolites in plants” (Impello Biosciences, Inc, priority 2020, dated 2023).
Where “and” joins values, the source holds several entries; their conditions need not be identical. Equal entries are not always repeated.

System: CBDRx Cherry hemp clones
Assay: Foliar spray of MS, MDJ and MS+MDJ on hemp clones: biomass, cannabinoid and terpene analysis
Assay type: in vivo, Cannabis spp.
Design: CBDA / CBD / THCA / Total CBG / Total cannabinoids: unit not given here
Conditions: for plants died before the end of the experiment: four plants per treatment group
Method: Methyl salicylate (MS) is an antagonistic compound to the jasmonates. To investigate the effect of MS alone and in conjunction with MDJ, MS (CAS No.: 119-36-8), MDJ, and the combination (MS+MDJ) were applied by foliar spray to CBDRx Cherry hemp clones once per week during both vegetative and flowering phases. Plants were transplanted into 1-gallon pots with Red's soil and put into vegetative light cycle (18L/6D). […] Plants were grown under a total of 12 Boost (Thrive Agritech, NY) 130-watt LED lights set to 18L: 6D photoperiod during the vegetative phase (2 weeks) and this was followed by a 12L: 12D photoperiod during the flowering phase (7 weeks), using the same lighting fixtures. Throughout the nine weeks, all plants were watered when needed with Jack's nutrients.
MS or MDJ treatments were applied at the following concentrations: [1 mM], [4.25 mM], [7.5 mM] and [10 mM]. Each concentration was prepared from a one molar stock solution diluted with RO water and TWEEN®-20 (1M stock) was added. Each plant was sprayed till dripping, which was approximately 50-75 ml. To apply the combination of the two biochemicals, MS and MDJ were sprayed separately but simultaneously, to ensure each compound was applied evenly onto the plant. Each compound was applied using a SPRAYMASTER Chemical Sprayer (King of Prussia, Pa.).
Plants were harvested two months after transplant. After harvesting, plants were air dried at room temperature for two weeks. Once plants were sufficiently dry, above ground dry weights were recorded and dried flower samples were collected and sent to a third-party lab for terpene and cannabinoid analysis. Two plants (#3 and #4) in treatment group MDJ [7.5] mM, two plants (#3 and #4) in MS [4.25] mM, one plant (#4) in MS [7.5], and one plant (#4) in MDJ [10] died before the end of the experiment.

[1] = 1 mM foliar spray, Avg. of group
[2] = 1 mM foliar spray, individual plant
[3] = 4.25 mM foliar spray, Avg. of group
[4] = 4.25 mM foliar spray, individual plant
[5] = 7.5 mM foliar spray, Avg. of group
[6] = 7.5 mM foliar spray, individual plant
[7] = 10 mM foliar spray, Avg. of group
[8] = 10 mM foliar spray, individual plant

## CCCCCC1C(=O)CCC1CC(=O)OC (centres unmarked) [MDJ, methyl dihydrojasmonate]
[1]
  Alpha-bisabolol: 0.109 % wt/wt
  Alpha-humulene: 0.08163 % wt/wt
  Beta-caryophyllene: 0.2027 % wt/wt
  CBCA: 0.64
  CBD: 0.105
  CBDA: 12.99
  CBGA: 0.3425
  Limonene: 0.1362 % wt/wt
  THCA: 0.565
  Total CBD: 11.4975
  Total CBG: 4.2075
  Total cannabinoids: 14.6425
  Total d9THC: 0.495
  alpha-pinene: 0.02277 % wt/wt
  beta-myrcene: 1.04 % wt/wt
  beta-pinene: 0.0188 % wt/wt
  total terpenes: 1.7075 % wt/wt
[2]
  Alpha-bisabolol: 0.1238 % wt/wt and 0.1069 % wt/wt and 0.094 % wt/wt and 0.1113 % wt/wt
  Alpha-humulene: 0.0944 % wt/wt and 0.0784 % wt/wt and 0.0831 % wt/wt and 0.0706 % wt/wt
  Beta-caryophyllene: 0.2352 % wt/wt and 0.2003 % wt/wt and 0.2076 % wt/wt and 0.1676 % wt/wt
  CBCA: 0.57 and 0.71 and 0.64 (2×)
  CBD: 0.16 and 0 and 0.12 and 0.14
  CBDA: 11.86 and 14.25 and 13.12 and 12.73
  CBGA: 0.28 and 0.44 and 0.34 and 0.31
  Limonene: 0.1352 % wt/wt and 0.1309 % wt/wt and 0.1572 % wt/wt and 0.1215 % wt/wt
  THCA: 0.52 and 0.63 and 0.57 and 0.54
  Total CBD: 10.55 and 12.5 and 11.63 and 11.31
  Total CBG: 0.24 and 16.03 and 0.29 and 0.27
  Total cannabinoids: 13.39 and 16.03 and 14.79 and 14.36
  Total d9THC: 0.45 and 0.55 and 0.5 and 0.48
  alpha-pinene: 0.0293 % wt/wt and 0.0283 % wt/wt and 0.0335 % wt/wt and 0 % wt/wt
  beta-myrcene: 0.9825 % wt/wt and 1.0146 % wt/wt and 1.2146 % wt/wt and 0.9497 % wt/wt
  beta-pinene: 0.0269 % wt/wt and 0.0238 % wt/wt and 0.0245 % wt/wt and 0 % wt/wt
  total terpenes: 1.73 % wt/wt and 1.67 % wt/wt and 1.92 % wt/wt and 1.51 % wt/wt
[3]
  Alpha-bisabolol: 0.1242 % wt/wt
  Alpha-humulene: 0.0859 % wt/wt
  Beta-caryophyllene: 0.2106 % wt/wt
  CBCA: 0.6275
  CBD: 0.29
  CBDA: 12.9825
  CBGA: 0.2975
  Limonene: 0.1168 % wt/wt
  THCA: 0.565
  Total CBD: 11.6725
  Total CBG: 0.2625
  Total cannabinoids: 14.7625
  Total d9THC: 0.495
  alpha-pinene: 0.0132 % wt/wt
  beta-myrcene: 0.9189 % wt/wt
  beta-pinene: 0.02055 % wt/wt
  total terpenes: 1.5875 % wt/wt
[4]
  Alpha-bisabolol: 0.1239 % wt/wt and 0.1229 % wt/wt and 0.1255 % wt/wt and 0.1245 % wt/wt
  Alpha-humulene: 0.0851 % wt/wt and 0.0781 % wt/wt and 0.0861 % wt/wt and 0.0943 % wt/wt
  Beta-caryophyllene: 0.2071 % wt/wt and 0.1897 % wt/wt and 0.208 % wt/wt and 0.2377 % wt/wt
  CBCA: 0.63 (2×) and 0.65 and 0.6
  CBD: 0.28 and 0.36 and 0.38 and 0.14
  CBDA: 13.17 (2×) and 12.87 and 12.72
  CBGA: 0.33 and 0.31 and 0.26 and 0.29
  Limonene: 0.1049 % wt/wt and 0.1307 % wt/wt and 0.0983 % wt/wt and 0.1334 % wt/wt
  THCA: 0.57 (2×) and 0.56 (2×)
  Total CBD: 11.83 and 11.9 and 11.67 and 11.29
  Total CBG: 0.29 and 0.27 and 0.23 and 0.26
  Total cannabinoids: 14.98 and 15.06 and 14.7 and 14.31
  Total d9THC: 0.5 (2×) and 0.49 (2×)
  alpha-pinene: 0 % wt/wt (2×) and 0.0253 % wt/wt and 0.0275 % wt/wt
  beta-myrcene: 0.8032 % wt/wt and 1.0724 % wt/wt and 0.7447 % wt/wt and 1.0552 % wt/wt
  beta-pinene: 0.0189 % wt/wt and 0.021 % wt/wt and 0.019 % wt/wt and 0.0233 % wt/wt
  total terpenes: 1.44 % wt/wt and 1.73 % wt/wt and 1.38 % wt/wt and 1.8 % wt/wt
[5]
  Alpha-bisabolol: 0.112 % wt/wt
  Alpha-humulene: 0.08165 % wt/wt
  Beta-caryophyllene: 0.2043 % wt/wt
  CBCA: 0.675
  CBD: 0.125
  CBDA: 13.16
  CBGA: 0.365
  Limonene: 0.09595 % wt/wt
  THCA: 0.575
  Total CBD: 11.665
  Total CBG: 0.315
  Total cannabinoids: 14.9
  Total d9THC: 0.505
  alpha-pinene: 0 % wt/wt
  beta-myrcene: 0.7442 % wt/wt
  beta-pinene: 0.01015 % wt/wt
  total terpenes: 1.345 % wt/wt
7.5 mM foliar spray
  plants died before the end of the experiment: Two plants
[6]
  Alpha-bisabolol: 0.1165 % wt/wt and 0.1076 % wt/wt
  Alpha-humulene: 0.0802 % wt/wt and 0.0831 % wt/wt
  Beta-caryophyllene: 0.2 % wt/wt and 0.2086 % wt/wt
  CBCA: 0.63 and 0.72
  CBD: 0.14 and 0.11
  CBDA: 12.43 and 13.89
  CBGA: 0.36 and 0.37
  Limonene: 0.0965 % wt/wt and 0.0954 % wt/wt
  THCA: 0.53 and 0.62
  Total CBD: 11.04 and 12.29
  Total CBG: 0.31 and 0.32
  Total cannabinoids: 14.09 and 15.71
  Total d9THC: 0.47 and 0.54
  alpha-pinene: 0 % wt/wt
  beta-myrcene: 0.7818 % wt/wt and 0.7066 % wt/wt
  beta-pinene: 0.0203 % wt/wt and 0 % wt/wt
  total terpenes: 1.39 % wt/wt and 1.3 % wt/wt
[7]
  Alpha-bisabolol: 1.477 % wt/wt
  Alpha-humulene: 0.1323 % wt/wt
  Beta-caryophyllene: 0.0874 % wt/wt
  CBCA: 0.643
  CBD: 0.24
  CBDA: 12.936
  CBGA: 0.33
  Limonene: 0.2188 % wt/wt
  THCA: 0.56
  Total CBD: 11.58
  Total CBG: 0.29
  Total cannabinoids: 14.71
  Total d9THC: 0.493
  alpha-pinene: 0.023 % wt/wt
  beta-myrcene: 0.1067 % wt/wt
  beta-pinene: 0.8058 % wt/wt
  total terpenes: 0.023 % wt/wt
10 mM foliar spray
  plants died before the end of the experiment: one plant
[8]
  Alpha-bisabolol: 0.1507 % wt/wt and 0.143 % wt/wt and 0.1033 % wt/wt
  Alpha-humulene: 0.0955 % wt/wt and 0.0751 % wt/wt and 0.0916 % wt/wt
  Beta-caryophyllene: 0.2372 % wt/wt and 0.1978 % wt/wt and 0.2214 % wt/wt
  CBCA: 0.62 and 0.71 and 0.6
  CBD: 0.18 and 0.34 and 0.2
  CBDA: 12.76 and 14.33 and 11.72
  CBGA: 0.26 and 0.41 and 0.32
  Limonene: 0.1165 % wt/wt and 0.0884 % wt/wt and 0.1154 % wt/wt
  THCA: 0.56 and 0.62 and 0.5
  Total CBD: 11.36 and 12.9 and 10.48
  Total CBG: 0.23 and 0.36 and 0.28
  Total cannabinoids: 14.38 and 16.41 and 13.34
  Total d9THC: 0.49 and 0.55 and 0.44
  alpha-pinene: 0 % wt/wt
  beta-myrcene: 0.8838 % wt/wt and 0.6844 % wt/wt and 0.8492 % wt/wt
  beta-pinene: 0.0249 % wt/wt and 0.0217 % wt/wt and 0.0224 % wt/wt
  total terpenes: 1.62 % wt/wt and 1.3 % wt/wt and 1.51 % wt/wt
All concentrations (1-10 mM), compared to all tested concentrations of MS
  plant growth effects on clonal hemp plants in the vegetative stage: beneficial plant growth effects
Application of 1 mM or 4.25 mM
  total terpene content: increased
